A value given as a limit tells only on which side of the number the result lay.

Data set [1] deals with breast tumor xenograft. In words: Breast tumor xenograft model in rats, MPG disulfide with or without cisplatin. Type of data set: in vivo. As to the method:
(§1) The efficacy of MPG disulfide in improving the response to cisplatin in the breast tumor xenograft model in rats was tested. MPG disulfide was tested against two different tumor sizes. These different tumor sizes were achieved by growing the tumor in rats for up to 6 days (small tumor, FIG. 13) or 12 days (large tumor, FIGS. 14 and 15). MPG disulfide was determined to be non-toxic to the animals.
(§2) The response of tumors to MPG disulfide was determined in rats with either small tumors (approximately 139 mm^3) or large tumors (approximately 2837 mm^3). MPG disulfide in physiological saline was administered at 40 mg/Kg/day via IP injections. The control animals were treated with saline. This treatment was continued for three consecutive days. […] Each group (control or MPG disulfide) consists of at least three animals. Each data point is mean of at least three animals with standard error as shown unless smaller than points plotted.
(§3) The improved response of large tumors to cisplatin by MPG disulfide was determined in rats with tumors of approximately 2837 mm^3 in tumor volume. MPG disulfide in physiological saline was administered at 40 mg/kg/day via IP injections. At one hour after MPG disulfide administration, cisplatin (2 mg/kg) was administered to these rats by IP. MPG treatment alone without cisplatin was continued for two more days in these animals. […] Each group (cisplatin or MPG disulfide with cisplatin) consists of at least three animals. Each data point is mean of at least three animals with standard error as shown unless smaller than points plotted.

Data set [2] concerns prostate cancer cell line (DU145). Briefly: Radiation response (survival after 4Gy γ irradiation) with HEDS. Type of data set: cell-based, human. The note with it: DU145, absence of glucose. The text has this:
(§4) FIGS. 17 and 18 show the impact of HEDS on the radiation response of a breast cancer cell line (MCF7) and a prostate cancer cell line (DU145) in the presence and absence of glucose.

Data set [3] has as its system breast cancer cell line (MCF7). The description is as above. Type of data set: cell-based, human. The note with it: MCF7, absence of glucose.
From the text: as §4

Data set [4] relates to HT29 cells. In words: Colony assay, HEDS plus 4 Gy irradiation. Type of data set: cell-based, human. To be noted: HT29, absence of glucose, HEDS 1 hour before 4 Gy irradiation. On the procedure:
(§5) For FIG. 3, radiation resistant human colon cancer cells HT29 were deprived of glucose for 4 hours and then treated with various concentrations of HEDS for 3 hours. The cells were washed and replenished with fresh growth medium. For FIG. 4, HT29 cells were deprived of glucose for 4 hours, treated with various concentrations of HEDS, and then treated for 1 hour before 4 Gy irradiation. Two hours after irradiation, the cells were washed and replenished with fresh growth medium. Colony assays were carried out by plating cells at concentration that gives no more than 200 colonies. Each experiment was repeated at least three times with errors as shown unless smaller than points plotted. […]

In data set [5] the test system is HCT116 cells. Briefly: Colony assay, HEDS plus 4 Gy irradiation. Type of data set: cell-based, human. To be noted: HCT116, absence of glucose, HEDS 1 hour before 4 Gy irradiation. As to the method:
For FIG. 2, HCT116 cells were deprived of glucose for 4 hours, treated with various concentrations of HEDS for 1 hour, and then exposed to 4 Gy irradiation. Two hours after irradiation, the cells were washed and replenished with fresh growth medium. The colony assay was then performed as described above for FIG. 1.

In data set [6] the test system is radiation resistant human colon cancer cells HT29. Briefly: Clonogenic (colony) assay, HEDS alone. Type of data set: cell-based. On the procedure:
as §5

Data set [7] deals with radiation sensitive human colon cancer cells HCT116. In words: Clonogenic (colony) assay, HEDS alone. Type of data set: cell-based. As to the method: In FIG. […] The cells were washed and replenished with fresh growth medium. Colony assays were carried out by plating cells at concentration that gives no more than 200 colonies. Each experiment was repeated at least three times with errors as shown unless smaller than points plotted.

For data set [8], the system named is human colon cancer cells HCT116. Briefly: Depletion of intracellular thiols (Ellman's reagent). To be noted: HEDS 3 hours. Type of data set: cell-based. As to the method:
The depletion of intracellular thiols by HEDS in human colon cancer cells HCT116 and HT29 was determined by first depriving the cells of glucose for 4 hours. After three hours of HEDS treatment, the attached cells were washed with cell rinse and lysed with 1 ml of sulphosalicyclic acid (SSA) lysis buffer. The samples were then centrifuged at high speed in a Fisher 59A microfuge and the supernatant was used for quantification of intracellular thiols using Ellman's reagent. Each experiment was repeated at least three times with errors as shown unless smaller than points plotted.
For the estimation of intracellular thiols in HCT116 cells, the cells were incubated with different concentrations of glucose for 4 hours. For FIG. 12, the cells were then treated with HEDS for 3 hours. After treatment, the attached cells were washed with cell rinse and lysed with 1 ml of sulphosalicyclic acid (SSA) lysis buffer. The samples were centrifuged at high speed in a Fisher 59A microfuge and the supernatant was used for quantification of intracellular thiols using Ellman's reagent. Each experiment was repeated at least three times with errors as shown unless smaller than points plotted.
In general terms: DTNB colorimetry detects thiols as they appear.

Data set [9] concerns breast tumor xenografts. Briefly: Response of tumor xenografts in rats to etoposide with HEDS. The note with it: HEDS 10 mg/kg/day IP one hour before etoposide 12 mg/Kg/day IP, three consecutive days, tumor about 8×8 mm. Type of data set: in vivo. As to the method: The use of HEDS, an oxidant/disulfide, to increase the response of tumor xenografts to topoisomerase II inhibitor, etoposide, was also investigated. […] The effect of HEDS (0 and 10 mg/kg/day) on the response of tumor to etoposide (12 mg/Kg/day) was determined in rats with tumor of approximately 8×8 mm in size. HEDS in physiological saline was administered at 0 and 10 mg/kg via IP injections. At one hour after HEDS administration, etoposide was administered to these rats by IP. This treatment was continued for three consecutive days. Tumor growth was measured twice a week for up to two weeks.

Data set [10] has as its system human colon cancer cells HT29. Briefly: Depletion of intracellular thiols (Ellman's reagent). Type of data set: cell-based. The note with it: HEDS 3 hours. As to the method: […] After three hours of HEDS treatment, the attached cells were washed with cell rinse and lysed with 1 ml of sulphosalicyclic acid (SSA) lysis buffer. The samples were then centrifuged at high speed in a Fisher 59A microfuge and the supernatant was used for quantification of intracellular thiols using Ellman's reagent. Each experiment was repeated at least three times with errors as shown unless smaller than points plotted.

The nature of data set [11]: Tolerability in tumor-bearing rats. Type of data set: in vivo. On the procedure:
as §1, §2, §3

`N.N.[Cl][Pt][Cl]` [Cisplatin, cis-diamine-dichloroplatinum (II), reference compound]: in [1] (large tumors, cisplatin alone 2 mg/kg IP), the “tumor volume on day 13 after the treatment” value is 4355±577 mm^3. The “tumor volume at start of treatment” value in [1] (large tumors, cisplatin alone group, baseline) amounted to 2948±180 mm^3.

On to `OCCSSCCO` [HEDS, hydroxyethyldisulfide], for which the radiation response result in data set [2] and in data set [3] was “significantly increased” throughout. Besides, the sensitization to radiation result in [4] and in data set [5] was “sensitization” throughout. For the same molecule, the “cytotoxic effect (clonogenic survival)” value is “little/no cytotoxic effects” in [6] (HT29, HEDS alone 3 hours, presence of glucose) and “little/no cytotoxic effects” in data set [7] (HCT116, HEDS alone 3 hours, presence of glucose). The effect on survival entry in data set [6] (HT29, absence of glucose (deprived 4 hours), higher concentration of HEDS alone) is listed as “no significant effect”. This molecule also had a decrease in survival in [7] (HCT116, absence of glucose (deprived 4 hours), higher concentration of HEDS alone, 3 hours) of 75%. Also, the intracellular thiols was ≥ 40 % of the control in data set [8] (HCT116, glucose deprived 4 hours); “intracellular thiol depletion” in [8] (HCT116, low concentrations (1-3 mM) of glucose); “maintaining the intracellular thiols” in [8] (HCT116, with glucose); ≥ 40 % of the control in data set [10] (HT29, glucose deprived 4 hours); “maintaining the intracellular thiols” in data set [10] (HT29, with glucose). Besides, the “better tumor response with HEDS and etoposide compared to etoposide alone” value in [9] is “at least 50%”.

As to `CC(SSC(C)C(=O)NCC(=O)O)C(=O)NCC(=O)O` (stereo not drawn) [MPG disulfide, disulfide of mercaptopropionylglycine (MPG) (glycinepropionyldisulfide)], the effect on tumors result in data set [1] (MPG disulfide in combination with cisplatin, even large tumors) is “completely eliminated tumors”. The “tumor volume on day 13 after the start of the treatment” value in [1] (large tumors, MPG disulfide 40 mg/kg/day IP (3 days) in combination with cisplatin 2 mg/kg IP) stood at 112±47 mm^3. In data set [1] (large tumors, MPG disulfide alone 40 mg/Kg/day IP, day 5 after the treatment), the “increase in tumor size” value is 3 fold. For the same molecule, the “tumor volume at start of treatment” value in [1] (large tumors, MPG disulfide alone group, baseline) is recorded as 2848±538 mm^3; in data set [1] (large tumors, cisplatin and MPG disulfide combination group, baseline), 2402±218 mm^3. Also, in data set [1] (large tumors, MPG disulfide alone, day 5 after the treatment), the “tumor smaller than the untreated animals” value is reported as 2.5 fold. For the same molecule, in data set [1] (large tumors, MPG disulfide alone, day 8), the maximum tumor size was 18,038±1289 mm^3. Moreover, in [1] (large tumors, MPG disulfide in combination with cisplatin, day 13), the “tumor smaller compared to cisplatin group” value was 38 fold. For the same molecule, in [1] (small tumors, MPG disulfide alone 40 mg/Kg/day IP, three consecutive days), the “tumor volume on day 13” value was 126±119 mm^3. Moreover, the “growth of small size tumors” value in data set [1] (small tumors, MPG disulfide alone 40 mg/Kg/day IP, to day 13) is listed as “completely inhibited the growth”. Also, the “tumor volume on the day of treatment” value in data set [1] (small tumors, MPG disulfide alone group, baseline) stood at 139±4.29 mm^3. Moreover, the observable side effects entry in data set [11] (MPG disulfide 40 mg/Kg/day IP, three consecutive days) was “did not cause any observable side effects”; in [11] (MPG disulfide 40 mg/kg/day IP with cisplatin 2 mg/kg IP, MPG continued two more days), “did not cause any observable side effects”. Also, in data set [11] (rats with breast tumor xenograft), the “toxicity to the animals” value is on record as “non-toxic”.

The values above are taken from US9522164B2, “Disulfide chemotherapeutic agents and methods of use thereof” (Lankenau Institute for Medical Research, priority 2007, dated 2016).
